# Results from patent US10801023B2, “Methods of identifying biologically active random peptides in plants and libraries of plants expressing candidate biologically active random peptides” (University of Florida Research Foundation, Inc., priority 2015, dated 2020).
# Tests used:
# [1] = tested on: Arabidopsis thaliana plants; experiment: Screening of library of transformed plants expressing candidate BARPs for new phenotypes; format: in vivo; conditions: for new phenotype associated with the BARP: plant of the library from which the BARP sequence was isolated; for phenotype: transgenic Arabidopsis thaliana expressing the BARP, scored from emergence to senescence
# From the text: In the present example, the methods of the present disclosure were used to generate a library of test nucleic acids encoding a plurality of candidate BARPs, each having a core 6 amino acid random peptide sequence flanked by two cysteine residues. The sequences were also flanked by start and stop codons and Gateway® sequences, such as illustrated in FIG. 1. PCR was used with primers corresponding to the known Gateway flanking sequences to generate the test nucleic acid library. The oligonucleotides were then cloned into bacterial vectors including genes for kanamycin resistance to create a recombination vector library. The vectors were then moved to Agrobacterium tumefaciens strain […] and used to transform Arabidopsis thaliana plants. Seeds were collected from the transformed plants and used to grow new plants. These plants were observed from seedling through the plant lifecycle and observed for new phenotypes. Several new phenotypes emerged, DNA was extracted from the plants displaying new phenotypes, and the sequence of the candidate BARP from the plants was determined. The procedures and results are described in detail below.
# The test nucleic acid sequences were synthesized using conserved initiator and terminator sequences flanking 18 random nucleotides, which provides a peptide that is ten amino acids long, with six of the core amino acids randomized, following a Met-Ala-Cys and ending with a Cys-term. This template is illustrated in FIG. 1. In the present example, the corresponding nucleic acid sequence was […] (SEQ ID NO: 5; nucleotides 14-46 of SEQ ID NO: 1). The cysteine residues in this case provide potential for formation of disulfide bonds that may impart additional structure to the adjacent amino acid loop. Although in this example 18 random nucleotides (identified as “N” in SEQ ID NOs: 1 and 5) were used, any number may be used, as long as it is a multiple of three.
# To construct the library of random-core BARP sequences, the above DNA sequence was synthesized as an oligonucleotide sequence, along with flanking sequences corresponding to the Gateway® recombination sequences. The middle portion of the sequence, represented by “N” in FIG. 1, were randomized nucleotides. Known synthesis techniques were used to build the sequences, resulting in a library of PCR products containing test nucleic acid sequences (start codon, spacer codon, cysteine codon, 18 random nucleotides encoding a core candidate BARP sequence, second cysteine codon, and stop codon) flanked by Gateway recombination sequences. Although Gateway® sequences were used in the present examples, other recombination cloning primer sequences could be used or specifically designed.
# The library of PCR products containing random test sequences was amplified using PCR based on flanking primers containing Gateway recombination sequences. These reactions produced a population of PCR products each containing the core peptide test sequence flanked by Gateway recombination sequences. These PCR products were introduced to the vector pDONR222 using Gateway recombination, and then transformed into E. coli genotype DH5α. The transformation vector also included the NPTII gene for kanamycin resistance. The E. coli cells were plated on kanamycin plates at low density to obtain single-colony separation. The single colonies each contained a separate plasmid bearing a random peptide sequence.
# The colonies were recovered from plates in liquid medium, and the plasmids were isolated. The isolated plasmids represented a library of many independent, random sequences (encoding candidate BARPs) flanked by ‘start’ and ‘stop’ sequences. […]
# [2] = tested on: Arabidopsis plants; experiment: Plant growth and phenotyping of PEP6 / PEP12 transgenic plants; format: in vivo, Arabidopsis thaliana; conditions: transgenic plant in soil; normal-sized plants 25 mm to 30 mm
# From the text: Two libraries encoding six- and twelve-random amino acid cyclized peptides (denoted PEP6 and PEP12, respectively) were constructed in binary vectors (as illustrated in FIG. 9) using a Gateway cloning strategy and transformed into Arabidopsis. More than 1,500 transgenic plants with the PEP6 T-DNA inserts were isolated and more than 600 transgenic plants were isolated carrying the PEP12 insert, representing a survival ratio of 1.8% and 1.2% respectively under kanamycin selection. To ensure library representation in the population, DNA was prepared from at least fifty transgenic plants, including ten that had small rosette diameter (5 mm to 10 mm) (e.g., those having BARP sequences SEQ ID NO: 14, 16, 6, 19, 21, 23, 26, 28, 30, and 32) compared to normal-sized plants (25 mm to 30 mm; see Table 2). The nucleotide sequences of all amplified random peptide open reading frames (rpORFs) were different, indicating representation of library diversity was maintained throughout the cloning and transformation process. Several phenotypes were visually apparent. […] Some plants showing multiple growth defects were recorded in each phenotype. Bolting plants with multiple inflorescences were transformed with the PEP6 or PEP12 destination library through the floral dipping method (Clough and Bent, 1998, incorporated herein by reference). For selection, seeds were surface sterilized by 70% ethanol for 5 min and 10% bleach for 20 min. Surface-sterilized seeds were plated on ½× MS basal medium with 0.5% Phyto Agar (cat. # M10200 and # A20300, Research Products International) and 50 μg/ml kanamycin for selection. Transgenic seedlings were identified by GFP expression or resistance to kanamycin. Transformed seedlings were grown to the 3-5 true leaf stage on plates and transferred to soil. DNA was extracted from each seedling (Edwards et al., 1991 incorporated herein by reference) for inserted nucleotide sequence identification. An approximately 500 bp DNA fragment containing the random peptide ORF and part of pK7WG2D vector sequence was amplified using primers PEP-F and PEP-R (SEQ ID NOs: 35 and 36, respectively) listed in Table 4 and sequenced. Arabidopsis plants were grown in soil at 20° C. under 16 hour light/8 hour dark conditions. The characterization of phenotypic variations was based on the comparison among seedlings grown in the same pot or flat.
# [3] = tested on: Arabidopsis thaliana plants; experiment: Independent replication of peptide-induced phenotypes in independent transformant lines; format: in vivo; conditions: BARP sequence re-introduced into Arabidopsis thaliana
# Description: A number of first-transformed generation plants were prepared and phenotypes were observed using the methods described in Example 1, above. In this example some 12-amino-acid-long candidate BARPs were also synthesized and tested. The procedures were the same as for the 6-aa BARPs described in Example 1. These phenotypes were also observed to be stable and inherited in subsequent generations. To verify that the effects observed are due to the expressed peptide and not to other less-likely positional/insertional causes, in this Example, a substantial number of the of the candidate 6 and 12 amino-acid-long BARPs were sequenced and separately transformed into independent plants. […] One microliter was used in a PCR reaction under standard conditions, and using primers corresponding to the attachment (recombinational cloning sequences) of the Gateway vector, the corresponding BARP sequences was amplified. This sequences were then recombined into the pDONR222 vector and then re-ligated into the binary pKWDG2 over-expression vector as described above. This sequence was then re-introduced into Arabidopsis thaliana plants using the floral dipping strategy and selection as noted above. The seedlings were then analyzed for the phenotype as defined by the original transformant. Recapitulation of the phenotype in multiple, independent transformation events provided high evidence of a specific physiological effect of the peptide.
# [4] = tested on: Arabidopsis thaliana seedlings; experiment: Salt tolerance screen and root elongation on salt media; format: in vivo
# Description: Also, to test for phenotypes not readily observable under normal conditions, seeds were collected from all plants in sets of nine and stored together, then planted and screened in various stress conditions to identify additional phenotypes. For example, seeds were planted on plant-growth media containing […] to screen for seedlings showing resistance to salt. Populations of BARP containing plants have also been grown in soil under water-deficit stress, leading to identification of peptides that confer tolerance to drought stress up on further evaluation.
# Also, to test for phenotypes not readily observable under normal conditions, seeds were collected from all plants, stored, and later planted and screened in various stress conditions to identify additional phenotypes. […] Two lines thrived on the high-salt media, one of them resulting in a conspicuous root phenotype. […] The left-hand bars in the graph in FIG. 7A represent wild-type seedlings, and the right-hand bars show the effect of the peptide. Root elongation was measured four days after germination (Day 0) and then again at four-day intervals. Error bars represent standard error of the mean.
# [5] = tested on: Arabidopsis seedlings; experiment: Inhibition of hypocotyl elongation under different light conditions; format: in vivo, Arabidopsis thaliana
# Description: Seeds were surface sterilized using a brief treatment of 70% ethanol and then set to dry on sterile paper discs in a laminar flow hood. The seeds were placed on 1 mM KCl plus 1 mM CaCl2 media containing 1% Phyto Agar on 100 mm square plates and stratified for 48 h. The vertical plates were transferred to various light conditions of varying spectral quality and fluence rates (as described in FIGS. 12A-12B), or complete darkness. […] Plants grown in darkness were placed under one of the narrow bandwidth treatments wrapped in two layers of aluminum foil. After 96 h the plates were scanned and the seedlings were measured using ImageJ software, and the length of the seedlings was reported as a fraction of dark-grown seedling length.
sequence,measurement,setting,value
MACDFLADLC (chemically synthesized peptide sequence of BARP associated with bushy seedling phenotype) [SEQ ID NO: 3],new phenotype associated with the BARP,[1],“bushy” seedling with small and upright leaves
MACGGGCSAC (chemically synthesized peptide sequence of BARP PEP6-46) [PEPB-46],rosette size,[2],10 mm
MACGKGSGLC (chemically synthesized peptide sequence of BARP associated with purple pigment accumulation in seed pods) [SEQ ID NO: 2],new phenotype associated with the BARP,[1],hyperaccumulation of purple pigments in seed pods
"MACKQAXQRC (chemically synthesized peptide sequence of BARP CBF6AA-85 associated with large, flat leaves and small petioles) [BARP; “X” represents a stop codon]",phenotype,[1],"tiny, curly leaves"
same,phenotype in independent transformant lines,[3],"large, flat leaves with small petioles"
MACNCSSDGC (chemically synthesized peptide sequence of BARP PEP6-27),rosette size,[2],8 mm
"MACPASVSVC (chemically synthesized peptide sequence of BARP 6AA-33.1 associated with salt resistance and elongated root growth) [PEP6-32, BARP associated with salt resistance, root growth and red light insensitivity]",salt tolerance,[4]; plant-growth media containing 100 μM NaCl,salt tolerance
same,root elongation,"[4]; seedlings on vertical agar plates under light, versus wild-type",increase in root elongation
same,hypocotyl length versus controls,[5]; 0.5 μmol·m^−2·s^−1 blue light,slightly longer hypocotyls
same,hypocotyl length versus controls,"[5]; blue light, fluence rates of 2 and 10 μmol·m^−2·s^−1",differences were not observed
same,hypocotyl length versus wild-type controls,"[5]; constant red light, fluence rates of 1, 10 and 50 μmol·m^−2·s^−1, four lines",longer hypocotyls than wild-type controls
same,seedling growth versus wild-type,[5]; darkness,comparable to wild-type seedlings
same,hypocotyl length versus controls,[5]; far red light conditions,No significant differences
same,hypocotyl length versus other seedlings,[5]; white light,slightly longer hypocotyls
same,rosette size,[2],27 mm
MACPNACFSC (chemically synthesized peptide sequence of BARP PEP6-33),rosette size,[2],9 mm
MACQELTMWC (chemically synthesized peptide sequence of BARP PEP6-30),rosette size,[2],10 mm
MACQLMWREC (chemically synthesized peptide sequence of BARP PEP6-28),rosette size,[2],8 mm
MACQQMLSGC (chemically synthesized peptide sequence of BARP PEP6-37),rosette size,[2],8 mm
"MACSAHCSDC (chemically synthesized peptide sequence of BARP associated with abberrant seedling characteristics) [SEQ ID NO: 4, BARP associated with strange seedling characteristics]",new phenotype associated with the BARP,[1],aberrant seedling characteristics
MACSDVSVIC (chemically synthesized peptide sequence of BARP PEP6-38),rosette size,[2],8 mm
MACWMSRMEC (chemically synthesized peptide sequence of BARP PEP6-12),rosette size,[2],5 mm
"MACWTSSVLC (chemically synthesized peptide sequence of BARP CBF6AA-110 associated with large, flat leaves and small petioles)",phenotype,[1],tiny
same,phenotype in independent transformant lines,[3],"large, flat leaves with small petioles"
MGCVCIEPYQRLRAKC (chemically synthesized peptide sequence of BARP 12AA-97 associated with arrested plant growth),phenotype,[1],died late
same,phenotype in independent transformant lines,[3],arrested plant growth
